According to patent publication US6258837A, “Neuropeptide Y receptor antagonist” (Banyu Pharmaceutical Co., Ltd., priority 1997, dated 2001):

Legend:
human NPY Y5 receptor = biological target: T1, human NPY Y5 receptor (Homo sapiens, UniProt Q15761); experiment: test of inhibition of NPY binding ([125I]peptide YY binding to membranes of cells expressing the NPY Y5 receptor)
T1 construct: expressed in transfected cells; host or cells: COS-7, CHO and LM(tk-)
T1 sequence (Q15761 1-445): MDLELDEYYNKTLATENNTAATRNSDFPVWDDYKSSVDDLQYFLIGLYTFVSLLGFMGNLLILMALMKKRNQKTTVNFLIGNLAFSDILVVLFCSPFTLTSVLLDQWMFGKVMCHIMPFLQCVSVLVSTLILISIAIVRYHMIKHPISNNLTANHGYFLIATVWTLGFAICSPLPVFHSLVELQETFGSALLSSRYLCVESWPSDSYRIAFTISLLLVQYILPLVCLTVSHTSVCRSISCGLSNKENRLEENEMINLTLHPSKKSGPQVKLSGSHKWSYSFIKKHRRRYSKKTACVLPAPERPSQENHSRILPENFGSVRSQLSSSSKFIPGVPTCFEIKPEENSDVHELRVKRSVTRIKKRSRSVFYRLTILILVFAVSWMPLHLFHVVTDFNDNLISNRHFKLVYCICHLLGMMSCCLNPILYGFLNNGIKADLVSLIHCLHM
Excerpt: cDNA Sequence encoding a human NPY Y5 receptor [International Publication WO 96/16542] was cloned into expression vectors pcDNA3, pRc/RSV (manufactured by Invitrogen) and pCI-neo (manufactured by Promega). Using the cationic lipid method [see Proceedings of the National Academy of Science of the United States of America, vol.84, p.7413 (1987)], host cells COS-7, CHO and LM(tk-) (American Type Culture Collection) were transfected with the thus prepared expression vectors to obtain cells in which the NPY Y5 receptor had been expressed.
After washing with 50 mM Tris buffer, pH 7.4, containing 0.3% BSA, radioactivity on the glass filter was measured using a gamma counter. Non-specific binding was measured in the presence of 1 μM of peptide YY to calculate a concentration of each compound to be tested which concentration is needed to inhibit 50% of the specific binding of the peptide YY (IC50 value) [see Endocrinology, vol.131, p.2090 (1992)].

SD male rats [1] = experiment: test of inhibition of feeding behavior induced by bPP; type: in vivo, rat; conditions: oral, one hour before bPP (5 μg/head/10 μl, lateral cerebral ventricle); food intake during two hours
Description: Under pentobarbital anesthesia (single intraperitoneal injection of 50 mg/kg), a chronic guide cannula (outer diameter 0.8 mm; inner diameter 0.5 mm; length 10 mm) was stereotactically inserted in a right lateral cerebral ventricle of each of SD male rats (7 to 8-week-old; 200 to 300 g) and fixed using a dental resin. A tip of the guide cannula was positioned 0.9 mm behind a bregma, 1.2 mm at the right of a median line and in the depth of 1.5 mm from the brain surface. An inner needle was inserted such that its tip projected from the tip of the guide cannula by about 2 mm and arrived to a lateral cerebral ventricle. After a recovery period of about one week, a bovine pancreatic polypeptide (bpp, 5 μg/head/10 μl) was administered to the lateral cerebral ventricle. A compound to be tested was orally administered one hour before the administration of bpp and food intake during two hours from the administration was measured. In this connection, the compound to be tested was administered after dissolving in a 0.5% aqueous methyl cellulose solution and bpp was administered after dissolving in 10 mM phosphate buffered saline.

SD male rats [2] = experiment: acute toxicity test; type: in vivo, rat; conditions: 500 mg/kg oral
Description: A compound to be tested in an amount of 500 mg/kg was orally administered to each of SD male rats (10-week-old; 300 to 400 g). After immediately, 5 minutes, 30 minutes, 1 hour, 2 hours, 4 hours, 6 hours, 8 hours and 24 hours from the administration, the condition of each rat was observed. And, after 24 hours from the administration, the rat was killed by dehematizing via carotid artery and then laparotomized in order to observe the presence or absence of any change in abdominal organs by the naked eye. In this connection, the compound to be tested was administered in a dose of 5 ml/kg after suspending in a 0.5% aqueous methyl cellulose solution.

## CC1(C)CC(=O)C(C2C3=C(CC(C)(C)CC3=O)Oc3ccccc32)C(=O)C1 (racemic) [compound [I], 3,3-dimethyl-9-(4,4-dimethyl-2,6-dioxo-cyclohexyl)-1-oxo-1,2,3,4-tetrahydroxanthene]
Human NPY Y5 receptor; [125I] peptide YY, 25° C., 2 hours, pH 7.4, membrane preparations, read-out: concentration needed to inhibit 50% of the specific binding of the peptide YY (IC50 value)
  IC50: 27 nM
Human NPY Y5 receptor; peptide YY (a homologue of NPY)
  inhibition of the binding of the peptide YY to the NPY Y5 receptor (in words): strongly inhibited the binding
SD male rats [1]
  inhibition of the increase in food intake induced by bPP: significantly inhibits the increase in food intake
SD male rats [2]; 24 hours after administration
  change in abdominal organs observed by the naked eye (acute toxicity): abdominal organs were observed to be unchanged
SD male rats [2]; until 24 hours after administration
  general health of each rat (acute toxicity): no abnormality in general health of each rat was observed
